This is an account of results in US6737272B2, “Methods for modulation of oocyte activation” (The Board of Trustees of the Leland Stanford Junior …, priority 1999, dated 2004).

In assay [1] the test system is L. pictus eggs. The experiment in a line: Egg activation after insemination of injected eggs. Conditions: for subsequent activation of oxyHb-inhibited eggs: after insemination, ionomycin 2 μM, GTPγS 100 μM final or cGMP 50 μM final injected; for fertilization envelope elevation / egg activation after insemination: eggs injected with oxyHb 12.5 or 50 μM, or 50 μM BSA, apoHb, cyanometHb, 1:20,000 sperm dilution.
Description: (§2) Also, co-injection of SNAP or CaM/nNOS with oxyHb. […] Subsequent activation of oxyHb-inhibited eggs by ionomycin (2 μM) or injection of either GTPγS (100 μM final) or cGMP (50 μM final).
(§3) The necessity of NO (or its equivalents) was assessed by injecting eggs with oxyHb.

The test system of the next assay is NOS. Conditions: gamete homogenates; ornithine 1.5 mM, nitro-L-arginine 100 μM.
Assay [2] concerns L. pictus eggs. The experiment in a line: Egg activation by microinjection (fertilization envelope elevation, pronuclear centering).
Description: as §2
Assay [3] concerns S. purpuratus sperm. The experiment in a line: NO production after sperm activation, nitrite accumulation. The format is cell-based. The settings on record: 5 min, 5 mM ionomycin or egg jelly, normalized to per cent acrosome reaction. The source says: (§1) We measure production of NO by gametes by accumulation of nitrite, an auto-oxidation product of NO, or by fluorescence changes in the NO indicator dye, diaminofluorescein (DAF). Qualitatively similar results are seen for exogenous NO production: activation of either male or female gametes results in NO accumulation in the surrounding medium (Table 1). […] Pre-treatment with inhibitors of the acrosome reaction, substantially prevents NO generation, but is triggered after subsequent addition of ionomycin (Table 2). Similarly, eggs activated by ionomycin treatment generate NO, although at lower levels than sperm (Table 1).

The subject of assay [4] is S. purpuratus sperm. The experiment in a line: NO production after sperm activation, DAF fluorescence. The format is cell-based. Conditions: 5 min, 5 mM ionomycin or egg jelly.
Source text: as §1

Assay [5] concerns S. purpuratus eggs. The experiment in a line: NO production after egg activation, DAF fluorescence. Conditions: 1 mM ionomycin, 5 min. The format is cell-based.
Source text: as §1

The test system of assay [6] is S. purpuratus eggs. The experiment in a line: NO production after egg activation, nitrite accumulation. The format is cell-based. Conditions: 1 mM ionomycin, 5 min.
Source text: as §1

Assay [7] has as its system L. pictus eggs. The experiment in a line: Calcium release in eggs at fertilization measured by calcium green-2. Conditions: oxyHb-injected eggs (14 eggs).
Description: as §2, §3
The subject of another assay is bovine oocytes. Put plainly: Calcium oscillations in bovine oocytes (fura-2 AM imaging). The format is cell-based. Conditions: oxyhemoglobin injected 30 to 45 minutes before sperm factor, ~200 uM final heme. How it is done: Bovine oocytes were ordered from Bomed (2433 University Avenue, Madison, Wis. 53705-3835). They collect the oocytes from the ovaries of slaughtered cows and place them immediately in maturation media to be shipped overnight.
Oocytes were matured overnight and used within 24-28 hours of collection. Oocytes were washed briefly three times in TL-HEPES media and then denuded by vortexing for 3 minutes in TL-HEPES containing 0.2% hyaluronidase. Denuded oocytes were subsequently washed in TL-HEPES and loaded with fura-2 AM by incubation at 37° C. for 15 to 30 minutes. Oocytes were attached to imaging dishes (Biopteks) using 50 μg/ml poly-D-lysine and imaged using 350/380 nm excitation and 510 nm emission filters on a Zeiss Axiovert S100 microscope and fluorescence intensity quantified using Metafluor 4.1 (Universal Imaging).
SNAP ([…]), an NO donor was synthesized prior to use by the method of Fehsel et al. (1996) Meth. Enzymol. 269:426-434. NO release was accomplished by bath addition of SNAP. Calcium release could be effectuated by addition of SNAP at varying concentrations (0.5 mM to 5 mM).
Sperm factor was prepared by the method of Wu et al. (Wu et al., 1997) and injected by a Narishige syringe microinjector to ˜2% oocyte volume. […] Calcium levels were monitored as detailed above.

Description for NOS: Absorbance at 585 nm was measured and normalized to total protein. […] This diaphorase activity is indicative of NOS activity. […] NOS activity is shown measured by citrulline conversion.
NADPH-dependent diaphorase activity or histochemical staining was assessed after a 24-h fixation of gametes. For activity measurements, gametes were lysed (sperm) or sonicated (eggs) in PBS with 1% NP-40 and incubated overnight in 1 mM NADPH, 0.5 mM NBT. Immunodepletion of diaphorase activity was done after size separation (>100K molecular weight cut-off (Amicon)). [^3H]arginine to [^3H]citrulline conversion of gamete homogenates was assessed after two cycles of freeze-thaw lysis (sperm) or Dounce homogenization (eggs) (in mM): 50 KCl, 10 NaCl, 1 EDTA, 5 DTT, 20 HEPES with PIC; pH 8. For inhibition experiments, gamete homogenates were treated with 20% (v/v) activated Dowex to remove endogenous arginine. […] NO determination by DAF fluorescence (490/515 nm) was done after incubating gametes in seawater containing 10 μM DAF.

On to `Nc1nc2c(ncn2[C@@H]2O[C@H](COP(=O)(O)OP(=O)(O)OP(O)(O)=S)[C@@H](O)[C@H]2O)c(=O)[nH]1` [GTPS], for which, in the assay on L. pictus eggs [1], the “subsequent activation of oxyHb-inhibited eggs” value was “elevate fertilization envelopes”.

Take `N=C(NCCC[C@H](N)C(=O)O)N[N+](=O)[O-]` [NG-nitro-L-arginine]: the “effect on citrulline conversion activity” value with NOS is given as “greatly suppresses”.

Take `[N]=O` [NO, nitric oxide]: in the assay on L. pictus eggs [2] (bath application, not injected), the “egg activation by bath application” value is “ineffective”.

As for `Nc1nc2c(ncn2[C@@H]2O[C@@H]3COP(=O)(O)O[C@H]3[C@H]2O)c(=O)[nH]1` [cGMP], the “subsequent activation of oxyHb-inhibited eggs” value in the assay with L. pictus eggs [1] is “elevate fertilization envelopes”.

With `C[C@H](CCC(=O)O)C[C@H](C)C[C@H](C)C(=O)/C=C(\O)[C@H](C)C[C@H](C)C/C=C/[C@@H](C)[C@@H](O)[C@@H](C)[C@@H](O)C[C@@H]1CC[C@@](C)([C@H]2CC[C@@](C)([C@@H](C)O)O2)O1` [ionomycin], the Nitrite in the assay on S. purpuratus sperm [3] (Sperm (1 μl)) is reported as 75 ± 30 pmol; in the assay on S. purpuratus sperm [3] (Sperm (5 ml)) it was 153 ± 15 pmol; with S. purpuratus sperm [3] (Sperm (10 ml)), 283 ± 15 pmol; in the assay with S. purpuratus eggs [6] (Eggs (1%, v/v)), 64 ± 4 pmol; in the assay on S. purpuratus eggs [6] (Eggs (2%, v/v)), 82 ± 9 pmol; in the assay with S. purpuratus eggs [6] (Eggs (5%, v/v)) it was 141 ± 10 pmol. The “subsequent activation of oxyHb-inhibited eggs” value in the assay on L. pictus eggs [1] is “elevate fertilization envelopes”. Also, the “DAF Fluorescence” value in the assay on S. purpuratus sperm [4] (Sperm (1 μl)) came to 103 ± 13 arbitrary units; with S. purpuratus sperm [4] (Sperm (5 ml)), 543 ± 35 arbitrary units; in the assay on S. purpuratus sperm [4] (Sperm (10 ml)), 910 ± 93 arbitrary units; with S. purpuratus eggs [5] (Eggs (1%, v/v)) it was 56 ± 10 arbitrary units; in the assay on S. purpuratus eggs [5] (Eggs (2%, v/v)), 76 ± 8 arbitrary units; in the assay with S. purpuratus eggs [5] (Eggs (5%, v/v)) it was 112 ± 6 arbitrary units.

“bovine serum albumin: a nitrosylable protein”: the “fertilization envelope elevation / egg activation after insemination” value in the assay on L. pictus eggs [1] is “not significantly affected”.

Turning to “oxyHb: oxyhemoglobin, a physiological scavenger of NO”, the “peak Ca2+ post-fertilization” value in the assay on L. pictus eggs [7] (control 1.4±0.2 μM) worked out at 540 ± 95 nM. In addition, in the assay on L. pictus eggs [7] (control 240±30 nM), the “resting Ca2+” value is 280 ± 65 nM. Moreover, the “fertilization envelope elevation / egg activation after insemination” value in the assay on L. pictus eggs [1] is recorded as “dose-dependently inhibited”. Further, the “pronuclear centering and first cell division” value in the assay with L. pictus eggs [1] (oxyHb-injected eggs after insemination) is 0 out of 15. For the same molecule, the “effect on sperm factor induced calcium oscillations” value in the assay with bovine oocytes is “inhibition”. Moreover, in the assay with L. pictus eggs [2] (co-injection), the “egg activation by SNAP or CaM/nNOS when co-injected with oxyHb” value was “does not occur”.

In the case of “recombinant nNOS with calmodulin (CaM): recombinant CaM-nNOS complexes formed by mixing CaM with nNOS”, the “pronuclear centering (eggs exhibiting a full fertilization envelope)” value in the assay with L. pictus eggs [2] (injected eggs) was 13 out of 13.

B1: nNOS: recombinant neuronal nitric oxide synthase from Stratagene (protein, UniProt P29475 1-1434, looked up)
Nitric oxide synthase 1: MEDHMFGVQQIQPNVISVRLFKRKVGGLGFLVKERVSKPPVIISDLIRGGAAEQSGLIQAGDIILAVNGRPLVDLSYDSALEVLRGIASETHVVLILRGPEGFTTHLETTFTGDGTPKTIRVTQPLGPPTKAVDLSHQPPAGKEQPLAVDGASGPGNGPQHAYDDGQEAGSLPHANGLAPRPPGQDPAKKATRVSLQGRGENNELLKEIEPVLSLLTSGSRGVKGGAPAKAEMKDMGIQVDRDLDGKSHKPLPLGVENDRVFNDLWGKGNVPVVLNNPYSEKEQPPTSGKQSPTKNGSPSKCPRFLKVKNWETEVVLTDTLHLKSTLETGCTEYICMGSIMHPSQHARRPEDVRTKGQLFPLAKEFIDQYYSSIKRFGSKAHMERLEEVNKEIDTTSTYQLKDTELIYGAKHAWRNASRCVGRIQWSKLQVFDARDCTTAHGMFNYICNHVKYATNKGNLRSAITIFPQRTDGKHDFRVWNSQLIRYAGYKQPDGSTLGDPANVQFTEICIQQGWKPPRGRFDVLPLLLQANGNDPELFQIPPELVLEVPIRHPKFEWFKDLGLKWYGLPAVSNMLLEIGGLEFSACPFSGWYMGTEIGVRDYCDNSRYNILEEVAKKMNLDMRKTSSLWKDQALVEINIAVLYSFQSDKVTIVDHHSATESFIKHMENEYRCRGGCPADWVWIVPPMSGSITPVFHQEMLNYRLTPSFEYQPDPWNTHVWKGTNGTPTKRRAIGFKKLAEAVKFSAKLMGQAMAKRVKATILYATETGKSQAYAKTLCEIFKHAFDAKVMSMEEYDIVHLEHETLVLVVTSTFGNGDPPENGEKFGCALMEMRHPNSVQEERKSYKVRFNSVSSYSDSQKSSGDGPDLRDNFESAGPLANVRFSVFGLGSRAYPHFCAFGHAVDTLLEELGGERILKMREGDELCGQEEAFRTWAKKVFKAACDVFCVGDDVNIEKANNSLISNDRSWKRNKFRLTFVAEAPELTQGLSNVHKKRVSAARLLSRQNLQSPKSSRSTIFVRLHTNGSQELQYQPGDHLGVFPGNHEDLVNALIERLEDAPPVNQMVKVELLEERNTALGVISNWTDELRLPPCTIFQAFKYYLDITTPPTPLQLQQFASLATSEKEKQRLLVLSKGLQEYEEWKWGKNPTIVEVLEEFPSIQMPATLLLTQLSLLQPRYYSISSSPDMYPDEVHLTVAIVSYRTRDGEGPIHHGVCSSWLNRIQADELVPCFVRGAPSFHLPRNPQVPCILVGPGTGIAPFRSFWQQRQFDIQHKGMNPCPMVLVFGCRQSKIDHIYREETLQAKNKGVFRELYTAYSREPDKPKKYVQDILQEQLAESVYRALKEQGGHIYVCGDVTMAADVLKAIQRIMTQQGKLSAEDAGVFISRMRDDNRYHEDIFGVTLRTYEVTNRLRSESIAFIEESKKDTDEVFSS
As to B1, the “injected amount yielding activation” value in the assay with L. pictus eggs [2] (recombinant nNOS, with CaM) is approximately 0.0075 pg.
